# Patent publication US20150133411A1, “COMPOUNDS WITH TRPV4 ACTIVITY, COMPOSITIONS AND ASSOCIATED METHODS THEREOF” (The University of Utah Research Foundation, priority 2012, published 2015)
# Experiments:
# retinal ganglion cells [1] = test: TUNEL assay of apoptotic cell death in retinas; type: cell-based; conditions: Compound 1 1 uM, RuR 10 μM
# Protocol: Terminal deoxynucleotidyl transferase-mediated dUTP-biotin nick end labeling (TUNEL) is a common method for detecting fragmentation that results from apoptotic signaling cascades. Retinas were embedded, cryosectioned, and processed for the TUNEL assay following the protocol by Gavrieli et al. (1992). After 30 min. rehydration in 70% ethanol, 2×5 min. rinses in PBS and 1% Triton-X in 1% citrate buffer (pH 7.3), the slides were subjected to a final rinse in PBS. Slides were then incubated for 30 min. in the reaction buffer (30 mM Trizma-HCl, 140 mM cacodylate, 1.0 mM CaCl2, 0.2% Triton X-100, pH 7.2). Positive controls were treated with DNAse I (Roche Diagnostics; Branford, Conn.; 10 U/ml) in the reaction buffer. Next, slides were treated for 1 hour with 0.03 units/μl terminal transferase and 4 μM biotin-16-dUTP (Roche Diagnostics). The reaction was terminated in 30 mM Na+ citrate, 300 mM NaCl and 0.2% Triton X-100 in PBS (5 min.) and rinsed in PBS (2×5 min), exposed to 1% bovine serum albumin in PBS for 20 min and rinsed. Apoptotic cells were visualized with a confocal microscope (Zeiss LSM510) and categorized by size. […] This was blocked by RuR and by the TRPV4 antagonist Compound 1.
# Müller cells = test: Arachidonic acid-induced [Ca2+]i in Müller cells; type: cell-based; conditions: 1 μM, 10 μM arachidonic acid
# Protocol: This response is blocked by Compound 1 (1 μM).
# TRPV4 = TRPV4 (Mus musculus, UniProt Q9EPK8); test: GSK-evoked [Ca++]i in retinal Müller glial cells; type: cell-based; parameters: endogenous in cells; host or cells: retinal Müller glial cells
# [2] = test system: MB mouse model of glaucoma; test: IOP in microbead (MB) mouse model of glaucoma, IP dosing; type: in vivo; conditions: 10 mg/kg body weight IP; MB-injected mice
# Protocol: FIG. 2 confirms that the mouse model for glaucoma causes RGC degeneration. Specifically, microbeads (MBs) were injected into the anterior chamber of a mouse eye. The MBs increase intraocular IOP above 15 mm Hg by blocking outflow of the aqueous humor within the anterior chamber of the eye. MBs were reinjected as needed to maintain a high IOP, typically one injection every two weeks. Contralateral eyes were injected intraocularly with the vehicle PBS (phosphate buffered saline) as controls. […] IOP levels were measured at least twice weekly before and after intraocular injections. After injections, mice recovered for 48 hours before IOP measurements resumed. […] Retinas were then removed and processed for immunohistochemistry (IHC). […] After rinsing with PBS, PBS containing the secondary antibody conjugated to fluorophores (Alexa 488 or Alexa 594; […] Retinas were rinsed and flat-mounted on microscope slides. Mounting medium was added and retinal wholemounts were coverslipped. The density of RGCs was imaged with a confocal microscope (Zeiss LSM 510) and quantified by counting NeuN-, CFP- and/or Tuj-1-labeled somata in the RGC layer of the retinal wholemount preparation. Injection of microbeads induces RGC degeneration after 8 weeks but not after 4 weeks. […] Mice were sedated with IP injection of Avertin with final amount calculated by weight (e.g., 0.5 ml for 21-24 g animals). […]
# [3] = test system: retinal neurons (RGCs) and glia (Müller cells); test: Hypotonic stimuli: cell swelling (change in cell area) and [Ca++]i; type: cell-based
# Source text: FIG. 18A illustrates the effect of hypotonic stimuli on cell swelling as measured by change in cell area. Hypotonic stimuli were generated by replacing extracellular sodium levels to lower osmolarity from 300 mOsm to 190 mOsm.
# retinal ganglion cells [4] = test: Hypotonic swelling-induced calcium influx into retinal ganglion cells (Fura-2); type: cell-based; conditions: FIG. 17C
# Source text: Cells were labeled with fluorescent calcium indicator dye Fura-2 and exposed to hypotonic solutions in which extracellular sodium was replaced by the osmotically inert substance mannitol, as described in […] et al. (J Neurosci. 2011 May 11; 31(19):7089-101; PMID 21562271).
# MB model of glaucoma = test: IOP time course after single eye drop in MB model of glaucoma; type: in vivo, mouse; conditions: single dose eye drop
# Protocol: Specifically, microbeads (MBs) were injected into the anterior chamber of a mouse eye as described in Example 2 with PBS-injected eyes used as controls. Compound 1 (10 mg/kg body weight) (or PBS vehicle) was injected intraperitoneally (IP). […] IOP was measured in mice between 10:00 AM and 1:00 PM with the TonoLab rebound tonometer (Colonial Medical Supply, Franconia, NH/Tyolat, Helsinki, Finland). Mice were sedated with IP injection of Avertin with final amount calculated by weight (e.g., 0.5 ml for 21-24 g animals). Animals were placed on a jack stand platform and the tonolab was clamped on a ring stand and centered onto the mid-cornea. During measurements animal were neither restrained nor touched. Each eye was measured twenty consecutive times, the highest and lowest values were discarded and the values were averaged.
# FIG. 9 illustrates the short-term effects of a single dose of Compound 1 (eye drop) in the MB model of glaucoma. IOP was measured as described in Example 3 at the indicated time points after receiving a drop of Compound 1. Compound 1 reduced IOP beginning at 1 hour after dosing and continued through 6 hours after dosing.
# FIG. 10 illustrates a time course of Compounds 1, 2, 5 and Compound 2-HCl as well as a positive control compound, timolol, with regard to inhibition of IOP. The experiment was conducted as described in Example 9. Each of the TRPV4 antagonists reduced IOP with a similar time course. Specifically, Compounds 1, 2, 5 and Compound 2-HCl reduced IOP for at least 6 hours after dosing.
# FIG. 11 illustrates a time course of Compound 2-HCl activity. The experiment was conducted as described in Example 9. […] 2
# FIG. 12 illustrates a comparison of the time course of Compound 2-HCl and Compound 5. The experiment was conducted as described in Example 9.
# Sequence of TRPV4 (Q9EPK8 whole entry): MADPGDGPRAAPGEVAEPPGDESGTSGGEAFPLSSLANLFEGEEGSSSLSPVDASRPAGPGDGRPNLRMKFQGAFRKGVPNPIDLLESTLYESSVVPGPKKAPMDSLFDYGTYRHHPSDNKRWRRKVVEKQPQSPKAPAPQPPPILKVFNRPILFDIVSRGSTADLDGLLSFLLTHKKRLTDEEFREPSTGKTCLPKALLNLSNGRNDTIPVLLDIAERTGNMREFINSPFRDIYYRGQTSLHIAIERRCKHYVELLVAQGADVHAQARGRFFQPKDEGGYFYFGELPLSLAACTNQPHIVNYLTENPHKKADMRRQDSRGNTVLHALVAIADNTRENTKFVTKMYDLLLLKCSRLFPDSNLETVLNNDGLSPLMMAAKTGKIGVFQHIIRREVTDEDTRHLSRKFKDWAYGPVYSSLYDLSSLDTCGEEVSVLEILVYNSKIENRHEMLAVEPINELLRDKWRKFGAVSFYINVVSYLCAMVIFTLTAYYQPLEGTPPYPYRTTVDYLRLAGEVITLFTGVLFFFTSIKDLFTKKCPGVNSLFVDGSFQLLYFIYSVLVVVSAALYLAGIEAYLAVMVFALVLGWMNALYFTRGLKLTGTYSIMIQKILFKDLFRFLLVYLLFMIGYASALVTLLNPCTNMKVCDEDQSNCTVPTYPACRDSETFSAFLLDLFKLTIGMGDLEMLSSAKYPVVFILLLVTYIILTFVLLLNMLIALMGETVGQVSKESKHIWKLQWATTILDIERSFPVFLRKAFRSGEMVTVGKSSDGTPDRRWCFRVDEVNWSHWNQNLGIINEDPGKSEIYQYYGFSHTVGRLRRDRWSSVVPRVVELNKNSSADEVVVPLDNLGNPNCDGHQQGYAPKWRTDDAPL
smiles,measurement,setting,value
"Cc1c(C(=O)Nc2cccc(C(F)(F)F)c2)cc(-c2ccccc2)n1CCCN1CCOCC1 [Compound 1, N-(3-(trifluoromethyl)phenyl)-2-methyl-1-(3-morpholinopropyl)-5-phenyl-1H-pyrrole-3-carboxamide]",apoptotic cell death induced by hypotonic swelling (TUNEL),retinal ganglion cells [1]; 190 mOsm saline,block apoptotic cell death
same,apoptotic cell death induced by TRPV4 agonist GSK (TUNEL),retinal ganglion cells [1]; GSK 100 nM,block apoptotic cell death
same,effect on arachidonic acid-induced [Ca2+]i increase,Müller cells,blocked
same,effect on GSK-evoked increase in [Ca++]i,TRPV4; retinal Müller glial cells,blocked
same,reversibility of effect on glial calcium levels,TRPV4; superfusion with control saline,"reversible, as it can be washed out by 10 minute superfusion with control saline"
same,MB-induced increase in IOP,[2],blocked the increase in IOP to the level observed in control mice
same,hypotonic stimuli-induced increase in [Ca++]i,[3]; FIG. 18B,inhibited
same,cell swelling (change in cell area),"[3]; hypotonic stimuli, 300 mOsm to 190 mOsm",prevented hypotonic stimuli-mediated cell swelling to the same extent as BAPTA-AM
same,pressure-dependent influx of calcium in RGCs,retinal ganglion cells [4],prevents
same,time after dosing at which IOP reduction begins,MB model of glaucoma,1 h
